Each compound was assayed on HCV replicon (assay: HCV replicon assay (NPT ELISA in HCV replicon-containing cells)). Conditions: Hepatitis C virus, 72 h, read-out: EC50 for inhibition of viral RNA replicon replication in Huh9-13 cells.
Assay type: cell-based
Description: The compounds claimed herein were tested for the ability to inhibit viral replication of the Hepatitis C replicon in cultured cells in which the HCV replicon construct has been incorporated. The HCV replicon system was described by Bartenschlager, et. al (Science, 285, pp. 110-113 (1999)). The replicon system is predictive of in vivo anti-HCV activity; compounds that are active in humans uniformly evidence activity in the replicon assay.
In this assay HCV replicon containing cells are treated with different concentrations of the test compound to ascertain the ability of the test compound to suppress replication of the HCV replicon. As a positive control, HCV replicon-containing cells are treated with different concentrations of interferon alpha, a known inhibitor of HCV replication. The replicon assay system includes Neomycin Phosphotransferase (NPT) as a component of the replicon itself in order to detect the transcription of replicon gene products in the host cell. Cells in which the HCV replicon is actively replicating have high levels of NPT; the level of NPT is proportional to HCV replication. […] The NPT level of each sample is measured using a captured ELISA.
A protocol for testing compounds for the ability to inhibit viral replication of the Hepatitis C replicon cultured cells in which the replicon construct has been incorporated, follows.
The HCV replicon contains, 5-′3′, the HCV-IRES, the neomycin phosphotransferase (neo) gene, the IRES of encephalomyocarditis virus, which directs translation of HCV sequences NS3 to NS5B, and the 3′-NTR. The sequence of the HCV replicon has been deposited in GenBank (Accession no. AJ242652).
The replicon is transfected into Huh-7 cells using standard methods such as electroporation.
The equipment and materials include, but are not limited to, Huh-7 HCV replicon-containing cells, maintenance media (DMEM (Dulbecco's modified Eagle media) supplemented with 10% FBS, L-glutamine, non-essential amino acids, penicillin (100 units/ml), streptomycin (100 micrograms/ml), and 500 micrograms/ml of Geneticin G418), screening media (DMEM supplemented with 10% FBS, L-glutamine, and non-essential amino acid, penicillin (100 units/ml) and streptomycin (100 micrograms/ml)), 96 well tissue culture plates (flat bottom), 96 well plates (U bottom for drug dilution), Interferon alpha for positive control, fixation reagent (such as methanol: acetone), primary antibody (rabbit anti-NPTII), secondary antibody: Eu-N1 l, and enhancement solution.
HCV replicon-containing cells are rinsed with once PBS once; 2 mls of trypsin is added. Cells are incubated at 37° C. in a 5% CO2 incubator for 3-5 minutes. 10 mls of complete medium is added to stop the reaction. Cells are blown gently, put into a 15 ml tube, and spun at 1200 rpm for four minutes. The trypsin/medium solution is removed and 5 mls of medium (500 ml DMEM (high glucose)) from BRL catalog #12430-054; 50 mls 10% FBS, […] (50 mg/ml, BRL 10131-035), 5 ml MEM non-essential amino acid (100×BRL #11140-050) and 5 ml pen-strep (BRL #15140-148) is added. The cells and media are mixed carefully
Cells are plated with screening medium (500 ml DMEM (BRL #21063-029), 50 ml FBS (BRL #10082-147) and 5 ml MEM non-essential amino acid (BRL #11140-050) at 6000-7500 cells/100 μl/well of 96 well plate (6-7.5×10^5 cells/10 ml/plate). Plates are placed into 37° C. 5% CO2 incubator overnight.
The following morning, drugs (test compounds or interferon alpha) are diluted in 96 well U bottom plates with media or DMSO/media, depending on the final concentration chosen for screening. Generally for 6 concentrations of each test compounds ranging from 10 micromolar to 0.03 micromolar are applied. 100 μl of the test compound dilution is placed in wells of the 96 well plate containing the HCV replicon cells. Media without drug is added to some wells as a negative controls. DMSO is known to affect cell growth. […]

SMILES | EC50 [µM]
CCCCOC(=O)c1ccc(NC(=S)N(C)C(=O)COc2ccccc2C)cc1 [Compound 4, 4-[3-Methyl-3-(2-o-tolyloxy-acetyl)-thioureido]-benzoic acid butyl ester] | 4.3
CCCCOC(=O)c1ccc(NC(=S)NC(=O)COc2ccc(F)cc2)cc1 [Compound 7, 4-{3-[2-(4-Fluoro-phenoxy)-acetyl]-thioureido}-benzoic acid butyl ester] | 3.4
N#Cc1ccc(NC(=S)NC(=O)COc2ccc(Cl)c(Cl)c2)cc1 [Compound 24, 1-(2-(3,4-dichloro-phenoxy)acetyl)-3-(4-cyanophenyl)thiourea] | 12.1
CCCCOC(=O)c1ccc(NC(=S)NC(=O)CSc2ccccc2)cc1 [Compound 36, 4-[3-(2-(Phenylsulfanyl)-acetyl)-thioureido]-benzoic acid butyl ester] | 2.3

Same assay, conditions: Hepatitis C virus, 72 h; HCV replicon-containing Huh-7 cells; three days incubation; read-out: EC50 for inhibition of replication of the HCV replicon

SMILES | EC50 [µM]
CCCCOC(=O)c1ccc(NC(=S)NC(=O)c2ccc3ccccc3c2)cc1 [Compound 1, 4-[3-(Naphthalene-2-carbonyl)-thioureido]-benzoic Acid Butyl Ester] | < 30
CCCCOC(=O)c1ccc(NC(=S)N(C)C(=O)COc2ccccc2)cc1 [Compound 2, 4-[3-Methyl-3-(2-Phenoxy-acetyl)-thioureido]benzoic Acid Butyl Ester] | < 30
O=C(COc1ccc(C2CC2)cc1)NC(=S)NCc1cccs1 [Compound 3, 1-(2-(4-Cylcopropylphenoxy)acetyl)-3-((thiophen-2-yl)methyl)thiourea] | < 30
CCCCOC(=O)c1ccc(NC(=S)N(C)C(=O)COc2ccccc2C)cc1 [Compound 4, 4-[3-Methyl-3-(2-o-tolyloxy-acetyl)-thioureido]-benzoic acid butyl ester] | < 30
CCCCOC(=O)c1ccc(NC(=S)N(C)C(=O)COc2cccc(C)c2)cc1 [Compound 5, 4-[3-Methyl-3-(2-m-tolyloxy-acetyl)-thioureido]-benzoic acid butyl ester] | < 30
CCCCOC(=O)c1ccc(NC(=S)NC(=O)COc2ccc(C)cc2)cc1 [Compound 6, 4-[3-(2-p-tolyloxy-acetyl)-thioureido]-benzoic acid butyl ester] | < 30
CCCCOC(=O)c1ccc(NC(=S)NC(=O)COc2ccc(F)cc2)cc1 [Compound 7, 4-{3-[2-(4-Fluoro-phenoxy)-acetyl]-thioureido}-benzoic acid butyl ester] | < 30
CCCCOC(=O)c1ccc(NC(=S)NC(=O)COc2ccc(OC)cc2)cc1 [Compound 8, 4-{3-[2-(4-Methoxy-phenoxy)-acetyl]-thioureido}-benzoic acid butyl ester] | < 30
O=C(COc1ccccc1)NC(=S)Nc1ccc(F)cc1 [Compound 9, 1-(4-Fluoro-phenyl)-3-(2-phenoxy-acetyl)-thiourea] | < 30
COc1cccc(NC(=S)NC(=O)COc2ccccc2)c1 [Compound 10, 1-(3-Methoxy-phenyl)-3-(2-phenoxy-acetyl)-thiourea] | < 30
COc1ccc(NC(=S)NC(=O)COc2ccccc2)cc1 [Compound 11, 1-(4-Methoxy-phenyl)-3-(2-phenoxy-acetyl)-thiourea] | < 30
O=C(COc1ccccc1)NC(=S)Nc1ccc(Oc2ccccc2)cc1 [Compound 12, 1-(2-Phenoxyacetyl)-3-(4-phenoxyphenyl)thiourea] | < 30
O=C(COc1ccccc1)NC(=S)Nc1ccc(OCc2ccccc2)cc1 [Compound 13, 1-(4-Benzyloxy-phenyl)-3-(2-phenoxy-acetyl)-thiourea] | < 30
O=C(COc1ccccc1)NC(=S)Nc1ccc(-c2ccccc2)cc1 [Compound 14, 1-Biphenyl-4-yl-3-(2-phenoxy-acetyl)-thiourea] | < 30
O=C(COc1ccccc1)NC(=S)Nc1ccc(C2CCCCC2)cc1 [Compound 15, 1-(4-Cyclohexyl-phenyl)-3-(2-phenoxy-acetyl)-thiourea] | < 30
O=C(COc1ccccc1)NC(=S)Nc1ccc(N2CCCCC2)cc1 [Compound 16, 1-[(4-piperidine-1-yl)-phenyl]-3-(2-phenoxy-acetyl)-thiourea] | < 30
CCN(CC)c1ccc(NC(=S)NC(=O)COc2ccccc2)cc1 [Compound 17, 1-(4-(Diethylamino)-phenyl)-3-(2-phenoxy-acetyl)-thiourea] | < 30
O=C(COc1ccccc1)NC(=S)Nc1cccc(Oc2ccccc2)c1 [Compound 18, 1-(2-phenoxy-acetyl)-3-(3-phenoxy-phenyl)-thiourea] | < 30
O=C(COc1ccccc1)NC(=S)Nc1cccc(OCc2ccccc2)c1 [Compound 19, 1-(3-Benzyloxy-phenyl)-3-(2-phenoxy-acetyl)-thiourea] | < 30

SMILES | EC50 [µM]
CC(=O)c1ccccc1NC(=S)NC(=O)COc1ccccc1 [Compound 20, 1-(2-Acetyl-phenyl)-3-(2-phenoxy-acetyl)-thiourea] | < 30
O=C(COc1ccccc1)NC(=S)Nc1ccc2cc(F)ccc2c1 [Compound 21, 1-(6-Fluoro-naphthalen-2-yl)-3-(2-phenoxy-acetyl)-thiourea] | < 30
O=C(COc1ccccc1)NC(=S)Nc1ccc2ncsc2c1 [Compound 22, 1-Benzothiazol-6-yl-3-(2-phenoxy-acetyl)-thiourea] | < 30
O=C(COc1ccccc1)NC(=S)Nc1cnc2ccccc2c1 [Compound 23, 1-(2-Phenoxy-acetyl)-3-quinolin-3-yl-thiourea] | < 30
N#Cc1ccc(NC(=S)NC(=O)COc2ccc(Cl)c(Cl)c2)cc1 [Compound 24, 1-(2-(3,4-dichloro-phenoxy)acetyl)-3-(4-cyanophenyl)thiourea] | < 30
O=C(NC(=S)Nc1cccc(Oc2ccccc2)c1)c1ccccc1O [Compound 25, 1-(2-Hydroxy-benzoyl)-3-(3-phenoxy-phenyl)-thiourea] | < 30
O=C(NC(=S)Nc1cccc(Oc2ccccc2)c1)c1cc2ccccc2o1 [Compound 26, 1-(Benzofuran-2-carbonyl)-3-(3-phenoxy-phenyl)-thiourea] | < 30
O=C(NC(=S)Nc1cccc(OCc2ccccc2)c1)c1cc2ccccc2o1 [Compound 27, 1-(Benzofuran-2-carbonyl)-3-(3-benzyloxy-phenyl)-thiourea] | < 30
O=C(NC(=S)Nc1cccc(OCc2ccccc2)c1)c1cc2ccccc2s1 [Compound 28, 1-(Benzo[b]thiophene-2-carbonyl)-3-(3-benzyloxy-phenyl)-thiourea] | < 30
O=C(NC(=S)Nc1cccc(OCc2ccccc2)c1)c1cc2cc(F)ccc2[nH]1 [Compound 29, 1-(3-Benzyloxy-phenyl)-3-(5-fluoro-1H-indole-2-carbonyl)-thiourea] | < 30
O=C(NC(=S)Nc1ccc(Oc2ccccc2)cc1)c1cc2cc(F)ccc2o1 [Compound 30, 1-(5-Fluoro-benzofuran-2-carbonyl)-3-(4-phenoxy-phenyl)-thiourea] | < 30
Fc1ccc2oc(C(=S)NC(=S)Nc3ccc(Oc4ccccc4)cc3)cc2c1 [Compound 31, 1-(5-Fluoro-benzofuran-2-carbothioyl)-3-(4-phenoxy-phenyl)-thiourea] | < 30
O=C(CCc1ccc(F)cc1)NC(=S)Nc1ccc(Oc2ccccc2)cc1 [Compound 32, 1-[3-(4-Fluoro-phenyl)-proprionyl]-3-(4-phenoxy-phenyl)-thiourea] | < 30
O=C(COc1ccccc1)NC(=S)NC1CCC(Oc2ccccc2)CC1 (stereo not drawn) [Compound 33, 1-(2-Phenoxy-acetyl)-3-(4-phenoxy-cyclohexyl)-thiourea] | < 30
O=C(COc1ccccc1)NC(=S)NCCc1ccccc1 [Compound 34, 1-Phenethyl-3-(2-phenoxy-acetyl)-thiourea] | < 30
CN(CCc1ccccc1)C(=S)NC(=O)COc1ccccc1 [Compound 35, 1-Methyl-1-phenethyl-3-(2-phenoxy-acetyl)-thiourea] | < 30
CCCCOC(=O)c1ccc(NC(=S)NC(=O)CSc2ccccc2)cc1 [Compound 36, 4-[3-(2-(Phenylsulfanyl)-acetyl)-thioureido]-benzoic acid butyl ester] | < 30
O=C(COc1ccccc1)NC(=S)Nc1ccc2c(c1)OCO2 [Compound 37, 1-Benzo[1,3]dioxol-5-yl-3-(2-phenoxy-acetyl)-thiourea] | < 30
O=C(COc1ccccc1)N1CCN(c2cccc(OCc3ccccc3)c2)C1=S [Compound 38] | < 30

— patent publication US7094807B2, “Substituted aryl thioureas and related compounds; inhibitors of viral replication” (Achillion Pharmaceuticals, Inc., priority 2002, dated 2006)
